Legend:
Type in all cases: in vivo
slender amaranth (Am) [1] = test: Test Example 2: herbicidal effects by upland field soil treatment; conditions: 100 g of the active ingredient per 10 ares, evaluated on the 21st day after application;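 note: grade of growth control; 5 = at least 90%; 4 = 70 to 90%; 3 = 50 to 70%; 2 = 30 to 50%; 1 = 10 to 30%; 0 = under 10%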
Description: (§1) (Test on Herbicidal Effects by Upland Field Soil Treatment)

Digitaria ciliaris (Di) = test: as above; conditions: 100 g of the active ingredient per 10 ares, evaluated on the 21st day after application;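 note: grade of growth control; 5 = at least 90%; 4 = 70 to 90%; 3 = 50 to 70%; 2 = 30 to 50%; 1 = 10 to 30%; 0 = under 10%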
Description: as §1

barnyardgrass (Ec) [2] = test: as above; conditions: 100 g of the active ingredient per 10 ares, evaluated on the 21st day after application
Description: as §1

rice flatsedge (Ci) [3] = test: as above; conditions: 100 g of the active ingredient per 10 ares, evaluated on the 21st day after application
Description: as §1

pale smartweed (Po) [4] = test: as above; conditions: 100 g of the active ingredient per 10 ares, evaluated on the 21st day after application
Description: as §1

[5] = tested on: common lambsquarters (Ch); test: as above; conditions: 100 g of the active ingredient per 10 ares, evaluated on the 21st day after application
Description: as §1

corn (Ze) = test: Test Example 7: crop plant selectivity by upland field soil treatment (corn), phytotoxicity; design: scale not given here; conditions: dose 6.3 g ai/10a, 21st day after application
Procedure: (§2) (Test on Crop Plant Selectivity by Upland Field Soil Treatment)
(§3) In a plastic pot (surface area: 600 cm^2) filled with sand, corn (Ze), green foxtail (Se), pale smartweed (Po), slender amaranth (Am), common lambsquarters (Ch) and China jute (Ab) were sown and covered with soil. […] The plants were then cultured in a green house, and the evaluation of the herbicidal effects and phytotoxicity was conducted on the 21st day after the application in accordance with the standards as identified in Table 47.

slender amaranth (Am) [6] = test: Test Example 7: crop plant selectivity by upland field soil treatment (corn), herbicidal effects; design: scale not given here; conditions: dose 6.3 g ai/10a, 21st day after application
Procedure: as §2, §3

green foxtail (Se) [7] = test: as above; design: scale not given here; conditions: dose 6.3 g ai/10a, 21st day after application
Procedure: as §2, §3

China jute (Ab) [8] = test: as above; design: scale not given here; conditions: dose 6.3 g ai/10a, 21st day after application
Procedure: as §2, §3

pale smartweed (Po) [9] = test: as above; design: scale not given here; conditions: dose 6.3 g ai/10a, 21st day after application
Procedure: as §2, §3

[10] = tested on: common lambsquarters (Ch); test: as above; design: scale not given here; conditions: dose 6.3 g ai/10a, 21st day after application
Procedure: as §2, §3

slender amaranth (Am) [11] = test: Test Example 6: crop plant selectivity by upland field soil treatment (soybean), herbicidal effects; design: scale not given here; conditions: dose 6.3 g ai/10a, 21st day after application
Procedure: as §2
(§4) In a plastic pot (surface area: 600 cm^2) filled with sand, soybean (Gl), Diaitaria ciliaris (Di), green foxtail (Se), Johnsongrass (So), pale smartweed (Po), slender amaranth (Am), common lambsquarters (Ch) and China jute (Ab) were sown and covered with soil. […] The plants were then cultured in a green house, and the evaluation of the herbicidal effects and phytotoxicity was conducted on the 21st day after the application in accordance with the standards as identified in Table 47. Symbol—represents “not tested”.

green foxtail (Se) [12] = test: as above; design: scale not given here; conditions: dose 6.3 g ai/10a, 21st day after application
Procedure: as §2, §4

China jute (Ab) [13] = test: as above; design: scale not given here; conditions: dose 6.3 g ai/10a, 21st day after application
Procedure: as §2, §4

pale smartweed (Po) [14] = test: as above; design: scale not given here; conditions: dose 6.3 g ai/10a, 21st day after application
Procedure: as §2, §4

[15] = tested on: common lambsquarters (Ch); test: as above; design: scale not given here; conditions: dose 6.3 g ai/10a, 21st day after application
Procedure: as §2, §4

barnyardgrass (Ec) [16] = test: Test Example 1: herbicidal effects by paddy field soil treatment; conditions: 100 g of the active ingredient per 10 ares, 21st day after the application, index 0-5 of Table 47;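 note: grade of growth control; 5 = at least 90%; 4 = 70 to 90%; 3 = 50 to 70%; 2 = 30 to 50%; 1 = 10 to 30%; 0 = under 10%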
Procedure, shortened: (§5)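 Greenhouse pot test in flooded paddy soil, dosed at 100 g a.i. per 10 ares; effect scored on day 21.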

bulrush (Sc) = test: as above; conditions: 100 g of the active ingredient per 10 ares, 21st day after the application, index 0-5 of Table 47;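 note: grade of growth control; 5 = at least 90%; 4 = 70 to 90%; 3 = 50 to 70%; 2 = 30 to 50%; 1 = 10 to 30%; 0 = under 10%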
Procedure, shortened: as §5

monochoria (Mo) = test: as above; conditions: 100 g of the active ingredient per 10 ares, 21st day after the application, index 0-5 of Table 47
Procedure, shortened: as §5

soybean (Gl) = test: Test Example 6: crop plant selectivity by upland field soil treatment (soybean), phytotoxicity; design: scale not given here; conditions: dose 6.3 g ai/10a, 21st day after application
Procedure: as §2, §4

cotton (Go) = test: Test Example 4: crop plant selectivity by upland field soil treatment (cotton), phytotoxicity; design: scale not given here; conditions: dose 6.3 g ai/10 a, evaluated 21st day after application
Procedure: as §2
(§6) In a plastic pot (surface area: 600 cm^2) filled with sand, cotton (Go), Diaitaria ciliaris (Di), green foxtail (Se), pale smartweed (Po), slender amaranth (Am), common lambsquarters (Ch) and China jute (Ab) were sown and covered with soil. […] The plants were then cultured in a green house, and the evaluation of the herbicidal effects and phytotoxicity was conducted on the 21st day after the application in accordance with the standards as identified in Table 47. Symbol—represents “not tested”.

slender amaranth (Am) [17] = test: Test Example 3: herbicidal effects by upland field foliage treatment; design: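 grade of growth control; 5 = at least 90%; 4 = 70 to 90%; 3 = 50 to 70%; 2 = 30 to 50%; 1 = 10 to 30%; 0 = under 10%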; conditions: 100 g active ingredient per 10 ares, evaluated 14th day after treatment
Procedure, shortened: (§7)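 Scores reflect herbicidal effect graded by standards on the 14th day after foliage treatment of weeds grown 2 weeks in a greenhouse.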

Diaitaria ciliaris (Di) = test: as above; design: scale not given here; conditions: 100 g active ingredient per 10 ares, evaluated 14th day after treatment
Procedure, shortened: as §7

barnyardgrass (Ec) [18] = test: as above; design: scale not given here; conditions: 100 g active ingredient per 10 ares, evaluated 14th day after treatment
Procedure, shortened: as §7

rice flatsedge (Ci) [19] = test: as above; design: scale not given here; conditions: 100 g active ingredient per 10 ares, evaluated 14th day after treatment
Procedure, shortened: as §7

pale smartweed (Po) [20] = test: as above; design: scale not given here; conditions: 100 g active ingredient per 10 ares, evaluated 14th day after treatment
Procedure, shortened: as §7

[21] = tested on: common lambsquarters (Ch); test: as above; design: scale not given here; conditions: 100 g active ingredient per 10 ares, evaluated 14th day after treatment
Procedure, shortened: as §7

slender amaranth (Am) [22] = test: Test Example 5: crop plant selectivity by upland field soil treatment (wheat), herbicidal effects; design: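 grade of growth control; 5 = at least 90%; 4 = 70 to 90%; 3 = 50 to 70%; 2 = 30 to 50%; 1 = 10 to 30%; 0 = under 10%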; conditions: dose 6.3 g ai/10a, 21st day after application
Procedure, shortened: (§8)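 Pre-emergence soil treatment, sand-filled pots, seeds covered with soil; greenhouse culture; visual scoring of weed control and wheat injury at day 21 post-application.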

green foxtail (Se) [23] = test: as above; design: scale not given here; conditions: dose 6.3 g ai/10a, 21st day after application
Procedure, shortened: as §8

China jute (Ab) [24] = test: as above; design: scale not given here; conditions: dose 6.3 g ai/10a, 21st day after application
Procedure, shortened: as §8

pale smartweed (Po) [25] = test: as above; design: scale not given here; conditions: dose 6.3 g ai/10a, 21st day after application
Procedure, shortened: as §8

[26] = tested on: common lambsquarters (Ch); test: as above; design: scale not given here; conditions: dose 6.3 g ai/10a, 21st day after application
Procedure, shortened: as §8

slender amaranth (Am) [27] = test: Test Example 4: crop plant selectivity by upland field soil treatment (cotton), herbicidal effects; design: scale not given here; conditions: dose 6.3 g ai/10 a, evaluated 21st day after application
Procedure: as §2, §6

green foxtail (Se) [28] = test: as above; design: scale not given here; conditions: dose 6.3 g ai/10 a, evaluated 21st day after application
Procedure: as §2, §6

China jute (Ab) [29] = test: as above; design: scale not given here; conditions: dose 6.3 g ai/10 a, evaluated 21st day after application
Procedure: as §2, §6

pale smartweed (Po) [30] = test: as above; design: scale not given here; conditions: dose 6.3 g ai/10 a, evaluated 21st day after application
Procedure: as §2, §6

[31] = tested on: common lambsquarters (Ch); test: as above; design: scale not given here; conditions: dose 6.3 g ai/10 a, evaluated 21st day after application
Procedure: as §2, §6

wheat (Tr) = test: Test Example 5: crop plant selectivity by upland field soil treatment (wheat), phytotoxicity; design: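 grade of crop injury; 5 = at least 90%; 4 = 70 to 90%; 3 = 50 to 70%; 2 = 30 to 50%; 1 = 10 to 30%; 0 = under 10%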; conditions: dose 6.3 g ai/10a, 21st day after application
Procedure, shortened: as §8

C#CCOc1cc(Cl)cc(F)c1-c1ccc(C(F)(F)F)n(C)c1=O [1′-4]
Herbicidal effects Am (slender amaranth (Am) [1]): 5
Herbicidal effects Di (Digitaria ciliaris (Di)): 5
Herbicidal effects Ec (barnyardgrass (Ec) [2]): 5
Herbicidal effects Ci (rice flatsedge (Ci) [3]): 5
Herbicidal effects Po (pale smartweed (Po) [4]): 5
Herbicidal effects Ch [5]: 5
Phytotoxicity Ze (corn (Ze)): 1
Herbicidal effects Am (slender amaranth (Am) [6]): 5
Herbicidal effects Se (green foxtail (Se) [7]): 5
Herbicidal effects Ab (China jute (Ab) [8]): 5
Herbicidal effects Po (pale smartweed (Po) [9]): 5
Herbicidal effects Ch [10]: 5
Herbicidal effects Am (slender amaranth (Am) [11]): 5
Herbicidal effects Se (green foxtail (Se) [12]): 5
Herbicidal effects Ab (China jute (Ab) [13]): 5
Herbicidal effects Po (pale smartweed (Po) [14]): 5
Herbicidal effects Ch [15]: 5
Herbicidal effects Ec (barnyardgrass (Ec) [16]): 5
Herbicidal effects Sc (bulrush (Sc)): 5
Herbicidal effects Mo (monochoria (Mo)): 5
Phytotoxicity Gl (soybean (Gl)): 1
Phytotoxicity Go (cotton (Go)): 0
Herbicidal effects Am (slender amaranth (Am) [17]): 5
Herbicidal effects Di (Diaitaria ciliaris (Di)): 5
Herbicidal effects Ec (barnyardgrass (Ec) [18]): 5
Herbicidal effects Ci (rice flatsedge (Ci) [19]): 5
Herbicidal effects Po (pale smartweed (Po) [20]): 5
Herbicidal effects Ch [21]: 5
Herbicidal effects Am (slender amaranth (Am) [22]): 5
Herbicidal effects Se (green foxtail (Se) [23]): 5
Herbicidal effects Ab (China jute (Ab) [24]): 5
Herbicidal effects Po (pale smartweed (Po) [25]): 5
Herbicidal effects Ch [26]: 5
Herbicidal effects Am (slender amaranth (Am) [27]): 5
Herbicidal effects Se (green foxtail (Se) [28]): 5
Herbicidal effects Ab (China jute (Ab) [29]): 5
Herbicidal effects Po (pale smartweed (Po) [30]): 5
Herbicidal effects Ch [31]: 5
Phytotoxicity Tr (wheat (Tr)): 1

CCCON=Cc1cc(-c2ccc(C(F)(F)F)n(C)c2=O)c(F)cc1Cl [Compound 1-188]
Herbicidal effects Am (slender amaranth (Am) [1]): 5
Herbicidal effects Di (Digitaria ciliaris (Di)): 5
Herbicidal effects Ec (barnyardgrass (Ec) [2]): 5
Herbicidal effects Ci (rice flatsedge (Ci) [3]): 5
Herbicidal effects Po (pale smartweed (Po) [4]): 5
Herbicidal effects Ch [5]: 5
Phytotoxicity Ze (corn (Ze)): 0
Herbicidal effects Am (slender amaranth (Am) [6]): 5
Herbicidal effects Se (green foxtail (Se) [7]): 5
Herbicidal effects Ab (China jute (Ab) [8]): 5
Herbicidal effects Po (pale smartweed (Po) [9]): 5
Herbicidal effects Ch [10]: 5
Herbicidal effects Am (slender amaranth (Am) [11]): 5
Herbicidal effects Se (green foxtail (Se) [12]): 5
Herbicidal effects Ab (China jute (Ab) [13]): 5
Herbicidal effects Po (pale smartweed (Po) [14]): 5
Herbicidal effects Ch [15]: 5
Herbicidal effects Ec (barnyardgrass (Ec) [16]): 5
Herbicidal effects Sc (bulrush (Sc)): 5
Herbicidal effects Mo (monochoria (Mo)): 5
Phytotoxicity Gl (soybean (Gl)): 1
Phytotoxicity Go (cotton (Go)): 0
Herbicidal effects Am (slender amaranth (Am) [17]): 5
Herbicidal effects Di (Diaitaria ciliaris (Di)): 5
Herbicidal effects Ec (barnyardgrass (Ec) [18]): 5
Herbicidal effects Ci (rice flatsedge (Ci) [19]): 5
Herbicidal effects Po (pale smartweed (Po) [20]): 5
Herbicidal effects Ch [21]: 5
Herbicidal effects Am (slender amaranth (Am) [22]): 5
Herbicidal effects Se (green foxtail (Se) [23]): 5
Herbicidal effects Ab (China jute (Ab) [24]): 5
Herbicidal effects Po (pale smartweed (Po) [25]): 5
Herbicidal effects Ch [26]: 5
Herbicidal effects Am (slender amaranth (Am) [27]): 5
Herbicidal effects Se (green foxtail (Se) [28]): 5
Herbicidal effects Ab (China jute (Ab) [29]): 5
Herbicidal effects Po (pale smartweed (Po) [30]): 5
Herbicidal effects Ch [31]: 5
Phytotoxicity Tr (wheat (Tr)): 1

CC(C)ON=Cc1cc(-c2ccc(C(F)(F)F)n(C)c2=O)c(F)cc1Cl [Compound 1-189]
Herbicidal effects Am (slender amaranth (Am) [1]): 5
Herbicidal effects Di (Digitaria ciliaris (Di)): 5
Herbicidal effects Ec (barnyardgrass (Ec) [2]): 5
Herbicidal effects Ci (rice flatsedge (Ci) [3]): 5
Herbicidal effects Po (pale smartweed (Po) [4]): 5
Herbicidal effects Ch [5]: 5
Phytotoxicity Ze (corn (Ze)): 1
Herbicidal effects Am (slender amaranth (Am) [6]): 5
Herbicidal effects Se (green foxtail (Se) [7]): 5
Herbicidal effects Ab (China jute (Ab) [8]): 5
Herbicidal effects Po (pale smartweed (Po) [9]): 5
Herbicidal effects Ch [10]: 5
Herbicidal effects Am (slender amaranth (Am) [11]): 5
Herbicidal effects Se (green foxtail (Se) [12]): 5
Herbicidal effects Ab (China jute (Ab) [13]): 5
Herbicidal effects Po (pale smartweed (Po) [14]): 5
Herbicidal effects Ch [15]: 5
Herbicidal effects Ec (barnyardgrass (Ec) [16]): 5
Herbicidal effects Sc (bulrush (Sc)): 5
Herbicidal effects Mo (monochoria (Mo)): 5
Phytotoxicity Gl (soybean (Gl)): 1
Phytotoxicity Go (cotton (Go)): 0
Herbicidal effects Am (slender amaranth (Am) [17]): 5
Herbicidal effects Di (Diaitaria ciliaris (Di)): 5
Herbicidal effects Ec (barnyardgrass (Ec) [18]): 5
Herbicidal effects Ci (rice flatsedge (Ci) [19]): 5
Herbicidal effects Po (pale smartweed (Po) [20]): 5
Herbicidal effects Ch [21]: 5
Herbicidal effects Am (slender amaranth (Am) [22]): 5
Herbicidal effects Se (green foxtail (Se) [23]): 5
Herbicidal effects Ab (China jute (Ab) [24]): 5
Herbicidal effects Po (pale smartweed (Po) [25]): 5
Herbicidal effects Ch [26]: 5
Herbicidal effects Am (slender amaranth (Am) [27]): 5
Herbicidal effects Se (green foxtail (Se) [28]): 5
Herbicidal effects Ab (China jute (Ab) [29]): 5
Herbicidal effects Po (pale smartweed (Po) [30]): 5
Herbicidal effects Ch [31]: 5
Phytotoxicity Tr (wheat (Tr)): 1

From patent US6472348B1, “Pyridone derivatives and herbicides” (Kumiai Chemical Industry Co., Ltd., priority 1996, dated 2002)
